{
  "source": "patent US20140148355A1",
  "about": "“COMPOSITIONS AND METHODS FOR ANALYSIS OF H3K4 METHYLATED CHROMATIN” (UNIVERSITY OF OSLO, priority 2011, published 2014)",
  "tested_on": "H3K4 methylated chromatin",
  "experiment": "Chromatin pulldown (ChPD) with western blot detection",
  "format": "binding",
  "conditions": "antibodies against each of the three H3K4 methylation states; Arabidopsis seedling chromatin",
  "source_text": "FIG. 8 Chromatin pulldown (ChPD) using the ASHH2 CW. […] Modified histones were visualised by western blot using antibodies as indicated. Molecular size markers are shown to the right. (B) qPCR with primers for assumed ASHH2 target genes on DNA isolated from seedling chromatin pulled down with GST-CWASHH2. ChPD with GST alone was used as a negative control. Data are shown as percent of input. The Ta3 retrotransposon was used as reference. Standard deviations are shown. (C) ChIP using antibodies against H3K4me1, H3K4me3 and H3K36me3 and primers for the same genes as in (B). Data are shown relative to Ta3. (D) ChPD from wt and ashh2 mutant seedlings as in (A) using antibodies as indicated. ChPD with GST alone was used as a negative control and histone H3 as reference.\nChromatin pull-down (ChPD) was performed using crude chromatin in ChIP dilution buffer (1.1% Triton X-100, 1.2 mM EDTA, 16.7 mM Tris-HCL pH 8, 167 mM NaCl) prepared as for ChIP (Gendrel et al., 2005) incubated with 8 μg GST-CW fusion protein and control proteins (only GST alone, or together with GST-CW-W874A and GST-WIYLD) over night. For western blotting, the pulled down chromatin was washed three times in ChIP dilution buffer, run on a 15% SDS-PAGE and blotted onto a PVDF membrane. […]",
  "data": [
    {"substance": "WIYLD domain of SUVR4: WIYLD domain of the Arabidopsis SET-domain protein SUVR4, GST fusion, negative control [reference compound]", "values": [
      {"measurement": "pull down of H3K4 methylated chromatin (western blot signal)", "result": "did not pull down"}
    ]}
  ]
}
